What was measured:
Assay in all cases: Western blot, injured cortex
Assay type in all cases: in vivo, mice
p-Akt Ser473 = details: for p-Akt Ser473 level, % of the vehicle level: 20 mg/kg ip 10 min after CCI
Protocol: (§1) Mice were anesthetized and positioned in a stereotaxic frame. LY294002 (200 nM in 0.5 µL of saline) or equal amount of physiological saline was intracerebroventricularly (icv) injected at 30 min before CCI as previously described. A 1 mm cranial burr hole was drilled into the skull. A 30-gauge needle on a Hamilton syringe was implanted into the lateral ventricle using stereotactic coordinates: 1.5 mm posterior to bregma and 1.0 mm right lateral to the midline, 2 mm in depth. LY294002 or saline was infused into the brain at a rate of 0.05 µL/min over 10 min with an infusion pump (KDS 310, KD Scientific Inc., Holliston, MA, USA), and the needle was left in place for an additional 20 min to prevent reflux. After the needle was removed, CCI procedure was conducted immediately. Sham-operated mice were infused icv with saline, but were not subjected to CCI.
(§2) Three sets of experiments were performed. The first set was to investigate the protective effects of salidroside. All animals were randomized into 1 of 3 groups (sham injury, CCI + vehicle, CCI + SALD 20). Surgery/injury, behavioral testing, and tissue analyses were performed by different individuals. Behavioral testing and tissue analyses were performed by individuals blinded to the treatment group. Salidroside (Cayman Chemical, Ann Arbor, MI, USA) dissolved in normal saline (0.25 mL) or a corresponding volume of vehicle (saline) was administered intraperitoneally 10 min following injury. Testing after injury was completed as follows: 1) behavioral testing at days 1, 4, 7, 14, 21, and 28 (n = 8–10 mice/group); 2) cresyl violet staining at day 28 (n = 9 mice/group); 3) histology, determination of brain water content, and western blot analysis at day 1 or 3 (n = 5–6 mice/group). To determine the optimal dose of salidroside, a pilot study was performed using 2 different doses (20 and 50 mg/kg) administered 10 min after injury, and neurological deficits and tissue damage were evaluated as the main outcomes. […] The second set of experiment was to assess the effect of the inhibition of PI3K/Akt with the specific PI3K inhibitor, LY294002 (Cell Signaling Technology, Danvers, MA, USA), on salidroside effects. Animals were randomized into 4 groups. Mice received either: 1) icv pretreatment of LY294002 followed by SALD 20 after CCI (S20Y group); or 2) icv pretreatment of saline (vehicle control) followed by SALD 20 after CCI (S20V group). 3) Mice were infused icv with saline and were subjected to sham injury. 4) Mice were infused icv with LY294002 and were subjected to sham injury. Testing after injury was completed as follows: 1) cresyl violet staining at day 28 (n = 6 mice/group); 2) western blot analysis at day 1 (n = 6 mice/group). The third set of experiment was performed to examine the neuroprotective time window afforded by salidroside. Mice received intraperitoneal SALD 20 or vehicle (saline) at 3 or 6 h following CCI and were sacrificed 1 day later for FJB staining and western blot analysis (n = 6 mice/group).
(§3) Brains of injured or sham animals were collected 1 day and 3 days post CCI or sham surgery, and a 4 mm coronal section from the injured area over the parietal cortex and ipsilateral hippocampus were collected. The protein samples were obtained from tissue homogenates in 300 µL of ice-cold reagent (T-PER reagent; Pierce Biotechnology, Rockford, IL, USA) with a complete mini protease inhibitor cocktail (Roche Molecular Biochemicals) centrifuged at 14000g for 30 min. Protein concentration was determined by Bradford reagent spectrophotometrically at A595. Equal amounts of protein samples were denatured in gel-loading buffer at 100°C for 5 min, and then loaded onto sodium dodecyl sulfate-polyacrylamide gels to be separated. Separated proteins were transferred to Immobilon-P membranes (Millipore, Billerica, MA, USA), blocked with the use of 5% milk in PBST and probed with primary antibodies. […]

p-Akt Thr308 = tested on: p-Akt Thr308
Protocol: as §1, §2, §3

p-Bad = details: 20 mg/kg ip 10 min after CCI; days 1 and 3; P>0.05
Protocol: as §1, §2, §3

p-FOXO1 = details: 20 mg/kg ip 10 min after CCI; days 1 and 3; P>0.05
Protocol: as §1, §2, §3

[1] = 20 mg/kg ip 10 min after injury, day 1

## OC[C@H]1O[C@@H](OCCc2ccc(O)cc2)[C@H](O)[C@@H](O)[C@@H]1O [SALD, salidroside]
p-Akt Ser473; day 1, P<0.05
  p-Akt Ser473 level, % of the vehicle level: 200.7%
p-Akt Ser473; day 3, P>0.05
  p-Akt Ser473 level, % of the vehicle level: 146.9%
p-Akt Ser473; [1]
  increase of p-Akt Ser473 level: 100.7%
p-Akt Ser473; 20 mg/kg ip 3 h after injury, day 1
  change of p-Akt Ser473 level (attenuated by): 46.2%
p-Akt Thr308; 20 mg/kg ip 10 min after CCI, day 3, P<0.05
  p-Akt Thr308 level, % of the vehicle level: 176.0%
p-Akt Thr308; [1]
  increase of p-Akt Thr308 level: 30.3%
p-Akt Thr308; 20 mg/kg ip 3 h after injury, day 1, not significant
  change of p-Akt Thr308 level (attenuated by): 19.5%
p-Bad
  p-Bad level versus vehicle group: no difference
p-FOXO1
  p-FOXO1 level versus vehicle group: no difference

Source: PMC3454376, “Salidroside Improves Behavioral and Histological Outcomes and Reduces Apoptosis via PI3K/Akt Signaling after Experimental Traumatic Brain Injury” (PLoS ONE, 2012)
